Data as given in the supplement of paper PMC11061612.

How the values were obtained:
Assay in all cases: combination Emax (second highest fraction inhibited in the dose matrix, 72 h); higher = more inhibition; extreme values may be limits of the assay
[1] = tested on: OVCAR-4 (Ovarian Carcinoma)
Method in brief: (§1)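 Cell lines grown in DMEM/F12 or RPMI with 10% FBS were plated in 1536-well plates and held 24 hours at 37°C, 5% CO2 before 72 hours of exposure to two-drug dose matrices, with DMSO typically at 0.2%. CellTiter-Glo 2.0 luminescence gave viability, which was converted to inhibition. Vehicle wells were set to 0 and blank wells to 1. Combination Emax is the second-highest inhibition in the matrix, and Bliss excess is the observed combination effect minus the expected EA + EB − EA·EB, where EA and EB are the single-agent effects.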

[2] = tested on: NEC8 (Other Solid Carcinomas)
Method in brief: as §1

[3] = tested on: Ca9-22 (Head and Neck Carcinoma)
Method in brief: as §1

[4] = tested on: SCC-15 (Oral Cavity Carcinoma)
Method in brief: as §1

TGW (Neuroblastoma) = tested on: TGW (Neuroblastoma)
Method in brief: as §1

[5] = tested on: NCI-H1915 (Non-Small Cell Lung Carcinoma)
Method in brief: as §1

[6] = tested on: LU-65 (Non-Small Cell Lung Carcinoma)
Method in brief: as §1

[7] = tested on: BT-549 (Breast Carcinoma)
Method in brief: as §1

[8] = tested on: HOP-62 (Lung Adenocarcinoma)
Method in brief: as §1

D-263MG (Glioblastoma) = tested on: D-263MG (Glioblastoma)
Method in brief: as §1

YH-13 (Glioblastoma) = tested on: YH-13 (Glioblastoma)
Method in brief: as §1

[9] = tested on: PANC-04-03 (Pancreatic Carcinoma)
Method in brief: as §1

[10] = tested on: Hs-766T (Pancreatic Carcinoma)
Method in brief: as §1

[11] = tested on: HSC-4 (Oral Cavity Carcinoma)
Method in brief: as §1

[12] = tested on: KARPAS-299 (T-Cell Non-Hodgkin's Lymphoma)
Method in brief: as §1

[13] = tested on: SU8686 (Pancreatic Carcinoma)
Method in brief: as §1

[14] = tested on: TE-1 (Esophageal Squamous Cell Carcinoma)
Method in brief: as §1

[15] = tested on: AMO-1 (Plasma Cell Myeloma)
Method in brief: as §1

[16] = tested on: HGC-27 (Gastric Carcinoma)
Method in brief: as §1

[17] = tested on: MLMA (Other Blood Carcinomas)
Method in brief: as §1

Row | Compound | combination Emax [1] | combination Emax [2] | combination Emax [3] | combination Emax [4] | combination Emax (TGW (Neuroblastoma)) | combination Emax [5] | combination Emax [6] | combination Emax [7] | combination Emax [8] | combination Emax (D-263MG (Glioblastoma)) | combination Emax (YH-13 (Glioblastoma)) | combination Emax [9] | combination Emax [10] | combination Emax [11] | combination Emax [12] | combination Emax [13] | combination Emax [14] | combination Emax [15] | combination Emax [16] | combination Emax [17]
1 | NC1(C(=O)N[C@@H](CCO)c2ccc(Cl)cc2)CCN(c2ncnc3[nH]ccc23)CC1 [Capivasertib] + CCN(CCO)CCCOc1ccc2c(Nc3cc(CC(=O)Nc4cccc(F)c4)[nH]n3)ncnc2c1 [AZD2811] (first compound max 10 µM, 7x7, partner max 1 µM) | 0.323 | 0.199 | 0.445 | 0.334 | 0.273 | 0.334 | 0.461 | 0.435 | 0.483 | 0.455 | 0.627 | 0.305 | 0.23 | 0.514 | 0.337 | 0.121 | 0.383 | 0.769 | 0.939 | 0.461
2 | NC1(C(=O)N[C@@H](CCO)c2ccc(Cl)cc2)CCN(c2ncnc3[nH]ccc23)CC1 [Capivasertib] + COc1nnc2ccc(N3CCC(c4ccc(OCCN5CCN(C)C(=O)[C@H]5C)cc4)CC3)nn12 [AZD5153] (first compound max 10 µM, 7x7, partner max 1 µM) | 0.398 | 0.951 | 0.799 | 0.508 | 0.867 | 0.588 | 0.536 | 0.602 | 0.648 | 0.562 | 0.723 | 0.495 | 0.457 | 0.529 | 0.741 | 0.0398 | 0.485 | 0.911 | 0.972 | 0.994
3 | NC1(C(=O)N[C@@H](CCO)c2ccc(Cl)cc2)CCN(c2ncnc3[nH]ccc23)CC1 [Capivasertib] + C[C@@H]1COCCN1C2=NC(=NC(=C2)C3(CC3)[S@](=N)(=O)C)C4=C5C=CNC5=NC=C4 [AZD6738] (first compound max 10 µM, 7x7, partner max 10 µM) | 0.707 | 0.799 | 0.872 | 0.601 | 0.614 | 0.531 | 0.632 | 0.511 | 0.652 | 0.442 | 0.648 | 0.575 | 0.437 | 0.73 | 0.928 | 0.166 | 0.449 | 0.903 | 0.923 | 0.771
4 | NC1(C(=O)N[C@@H](CCO)c2ccc(Cl)cc2)CCN(c2ncnc3[nH]ccc23)CC1 [Capivasertib] + Cn1cnc2c(F)c(Nc3ccc(Br)cc3Cl)c(C(=O)NOCCO)cc21 [Selumetinib] (first compound max 10 µM, 7x7, partner max 10 µM) | 0.338 | 0.152 | 0.554 | 0.524 | 0.262 | 0.791 | 0.729 | 0.41 | 0.644 | 0.518 | 0.598 | 0.576 | 0.591 | 0.609 | 0.587 | 0.26 | 0.49 | 0.801 | 0.841 | 0.513
5 | COc1cccc2c1C(=O)c1c(O)c3c(c(O)c1C2=O)C[C@@](O)(C(=O)CO)C[C@@H]3O[C@H]1C[C@H](N)[C@H](O)[C@H](C)O1 [Doxorubicin] + Cc1cc2ncnn2cc1Nc1ncc2c(n1)n(C1CCOCC1)c(=O)n2C [AZD7648] (first compound max 1 µM, 7x7, partner max 10 µM) | 0.451 | 0.973 | 0.831 | 0.329 | 0.497 | 0.486 | 0.889 | 0.441 | 0.619 | 0.789 | 0.754 | 0.278 | 0.43 | 0.437 | 0.941 | 0.203 | 0.736 | 0.973 | 0.928 | 0.893
6 | CS(=O)(=O)CCNCc1ccc(-c2ccc3ncnc(Nc4ccc(OCc5cccc(F)c5)c(Cl)c4)c3c2)o1 [Lapatinib] + C[C@@H](Oc1cc(-c2cnn(C3CCNCC3)c2)cnc1N)c1c(Cl)ccc(F)c1Cl [Crizotinib] (first compound max 10 µM, 7x7, partner max 10 µM) | 0.727 | 0.862 | 0.987 | 0.944 | 0.776 | 0.65 | 0.894 | 0.609 | 0.842 | 0.595 | 0.809 | 0.594 | 0.319 | 0.465 | 0.978 | 0.16 | 0.919 | 0.958 | 0.983 | 0.899
7 | CC(=O)c1c(C)c2cnc(Nc3ccc(N4CCNCC4)cn3)nc2n(C2CCCC2)c1=O [Palbociclib] + CC1(C)CCC(CN2CCN(c3ccc(C(=O)NS(=O)(=O)c4ccc(NCC5CCOCC5)c([N+](=O)[O-])c4)c(Oc4cnc5[nH]ccc5c4)c3)CC2)=C(c2ccc(Cl)cc2)C1 [Venetoclax] (first compound max 10 µM, 7x7, partner max 1 µM) | 0.0611 | 0.0159 | 0.2 | 0.0783 | 0.226 | 0.466 | 0.117 | 0.308 | 0.251 | 0.222 | 0.344 | 0.0967 | 0.149 | 0.121 | 0.495 | 0.0346 | 0.179 | 0.273 | 0.628 | 0.683
